Here are results for 29 compounds from patent publication US20170143701A1, “CARBOHYDRATE METABOLISM-AMELIORATING AGENT” (SUNTORY HOLDINGS LIMITED, priority 2014, published 2017).

For assay [1], the system named is NCI-H716 cells. The assay is described as follows: In vitro GLP-1 secretion-accelerating action: amount of active GLP-1 secreted (ELISA). Format: cell-based. The conditions noted are these: 1 hour; for Significant difference (p < 0.05) vs control group, amount of active GLP-1 secreted: 10 mM, Student's t-test; for Amount of active GLP-1 secreted (relative value to control group as 100), average value: cyclic dipeptide 10 mM with 10 μM Sitagliptin phosphate, group with no cyclic dipeptide = 100. How it is done:
Among the cyclic dipeptides, 92 highly water-soluble cyclic dipeptides were used in the following experiment. In each well of a Poly-L-Lysine 96-well plate, NCI-H716 cells suspended in 100 μL of a DMEM (with 10% FBS, 2 mM glutamine, and 1% antibiotics added in advance) were seeded at 0.5×10^5 cells/well, and cultured in a CO2 incubator (manufactured by ESPEC CORP.) for 48 hours. After washing with PBS(+), 100 μL of a PBS(+) solution with each cyclic dipeptide at a final concentration of 10 mM and 10 μM of Sitagliptin phosphate added therein was added to the cells. After 1 hour, the resultant solution was recovered, and the amount of active GLP-1 in the solution was measured by using the ELISA kit. In the analysis, the amount of active GLP-1 for a group with no cyclic dipeptide added was defined as 100, and relative values thereto were used.
(In an ELISA, binding on a coated surface is turned into a signal by an enzyme label.)

Assay [2] deals with C57/BL6J mice. The assay is described as follows: In vivo plasma GLP-1 level-increasing action: plasma active GLP-1 level (ELISA) after oral administration. The conditions noted are these: 10 mg/kg oral; for Significant difference (p < 0.05) vs control group, plasma active GLP-1 level: 30 minutes, Student's t-test; for Plasma active GLP-1 level (relative value to control group as 100), average value: blood 30 minutes after, 0.5% CMC-Na group = 100. In outline: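 Male C57BL/6J mice, habituated 1 week, deprived of food 5.5 h and water 2 h, then dosed orally with compound at 10 mg/kg in 0.5% CMC-Na. Vena cava blood taken 30 min later under anaesthesia, with heparin and sitagliptin added; plasma active GLP-1 by ELISA, relative to vehicle group set at 100.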

Consider `O=C1N[C@@H](Cc2cnc[nH]2)C(=O)N2CCC[C@@H]12` [compound 37, cyclo-histidyl-proline], for which, in assay [1] (Table 1, Experiment 1), the “Significant difference (p < 0.05) vs control group, amount of active GLP-1 secreted” value was “No” and the “Amount of active GLP-1 secreted (relative value to control group as 100), average value” was 231. In addition, in assay [2] (Table 6, Experiment 1), the “Significant difference (p < 0.05) vs control group, plasma active GLP-1 level” value is reported as “Yes” and the “Plasma active GLP-1 level (relative value to control group as 100), average value” was determined as 62.
Turning to `NC(N)=NCCCC1NC(=O)C(CC(=O)O)NC1=O` (centres unmarked) [compound 207, cyclo-arginyl-aspartic acid], in assay [1] (Table 4, Experiment 4), the “Significant difference (p < 0.05) vs control group, amount of active GLP-1 secreted” value is on record as “Yes” and the “Amount of active GLP-1 secreted (relative value to control group as 100), average value” was determined as 1255. Also, in assay [2] (Table 7, Experiment 2), the “Significant difference (p < 0.05) vs control group, plasma active GLP-1 level” value is “Yes” and the “Plasma active GLP-1 level (relative value to control group as 100), average value” is 266.
In the case of `CC(C)[C@@H]1NC(=O)[C@H](CCCN=C(N)N)NC1=O` [compound 194, cyclo-arginyl-valine], in assay [1] (Table 4, Experiment 4), the “Significant difference (p < 0.05) vs control group, amount of active GLP-1 secreted” value is “Yes” and the “Amount of active GLP-1 secreted (relative value to control group as 100), average value” is given as 498. In assay [2] (Table 7, Experiment 2), the “Significant difference (p < 0.05) vs control group, plasma active GLP-1 level” value is “Yes” and the “Plasma active GLP-1 level (relative value to control group as 100), average value” was found to be 237.
Consider `C[C@@H](O)[C@@H]1NC(=O)[C@@H]2CCCN2C1=O` [compound 31, Cyclo(Pro-Thr)], for which, in assay [1] (Table 1, Experiment 1), the “Significant difference (p < 0.05) vs control group, amount of active GLP-1 secreted” value is given as “Yes” and the “Amount of active GLP-1 secreted (relative value to control group as 100), average value” is 204. In addition, in assay [2] (Table 6, Experiment 1), the “Significant difference (p < 0.05) vs control group, plasma active GLP-1 level” value is given as “No” and the “Plasma active GLP-1 level (relative value to control group as 100), average value” was 129.
The like results for `CC1NC(=O)C(CO)NC1=O` (centres unmarked) [compound 25, cyclo-alanyl-serine] were, in that order, “Yes”, 257, “Yes” and 158.
As for `CSCC[C@@H]1NC(=O)[C@H](CCCNC(=N)N)NC1=O` [compound 199, cyclo-methionyl-arginine], in assay [1] (Table 4, Experiment 4), the “Significant difference (p < 0.05) vs control group, amount of active GLP-1 secreted” value is on record as “Yes” and the “Amount of active GLP-1 secreted (relative value to control group as 100), average value” is 652. In addition, in assay [2] (Table 7, Experiment 2), the “Significant difference (p < 0.05) vs control group, plasma active GLP-1 level” value is “Yes” and the “Plasma active GLP-1 level (relative value to control group as 100), average value” is given as 217.
`CC(O)C1NC(=O)C(C(C)O)NC1=O` (centres unmarked) [compound 164, cyclo-threonyl-threonine]: in assay [1] (Table 3, Experiment 3), the “Significant difference (p < 0.05) vs control group, amount of active GLP-1 secreted” value is “Yes” and the “Amount of active GLP-1 secreted (relative value to control group as 100), average value” was determined as 162. For the same compound, in assay [2] (Table 15, Experiment 10), the “Significant difference (p < 0.05) vs control group, plasma active GLP-1 level” value is recorded as “Yes” and the “Plasma active GLP-1 level (relative value to control group as 100), average value” is given as 282.
In the case of `NC(N)=NCCC[C@@H]1NC(=O)[C@@H]2CCCN2C1=O` [compound 209, cyclo-arginyl-proline], in assay [1] (Table 4, Experiment 4), the “Significant difference (p < 0.05) vs control group, amount of active GLP-1 secreted” value is “Yes” and the “Amount of active GLP-1 secreted (relative value to control group as 100), average value” came out at 441. Besides, in assay [2] (Table 7, Experiment 2), the “Significant difference (p < 0.05) vs control group, plasma active GLP-1 level” value is on record as “Yes” and the “Plasma active GLP-1 level (relative value to control group as 100), average value” is recorded as 315.
Take `C[C@@H]1NC(=O)[C@H](CCCCN)NC1=O` [compound 69, Cyclo(Ala-Lys)]: in assay [1] (Table 2, Experiment 2), the “Significant difference (p < 0.05) vs control group, amount of active GLP-1 secreted” value is on record as “No” and the “Amount of active GLP-1 secreted (relative value to control group as 100), average value” is on record as 161.
With `NC(=O)CC[C@@H]1NC(=O)CNC1=O` [compound 126, cyclo-glutaminyl-glycine], in assay [1] (Table 3, Experiment 3), the “Significant difference (p < 0.05) vs control group, amount of active GLP-1 secreted” value is reported as “Yes” and the “Amount of active GLP-1 secreted (relative value to control group as 100), average value” was 210.
In the case of `CSCC[C@@H]1NC(=O)[C@H](CCC(N)=O)NC1=O` [compound 186, cyclo-glutaminyl-methionine], in assay [1] (Table 4, Experiment 4), the “Significant difference (p < 0.05) vs control group, amount of active GLP-1 secreted” value is “Yes” and the “Amount of active GLP-1 secreted (relative value to control group as 100), average value” worked out at 191.
In the case of `CSCCC1NC(=O)C(CC(N)=O)NC1=O` (centres unmarked) [compound 175, cyclo-asparaginyl-methionine], in assay [1] (Table 4, Experiment 4), the “Significant difference (p < 0.05) vs control group, amount of active GLP-1 secreted” value is recorded as “Yes” and the “Amount of active GLP-1 secreted (relative value to control group as 100), average value” stood at 218.
The like results for `N=C(N)NCCC[C@@H]1NC(=O)[C@H](CCCNC(=N)N)NC1=O` [compound 212, cyclo-arginyl-arginine] were, in that order, “Yes” and 1050.
The like results for `CSCCC1NC(=O)C(CC(=O)O)NC1=O` (centres unmarked) [compound 172, Cyclo(Met-Asp)] were, in that order, “No” and 141.
For the compound `NCCCCC1NC(=O)C(CC(=O)O)NC1=O` (centres unmarked) [compound 100, Cyclo(Asp-Lys)], in assay [1] (Table 3, Experiment 3), the “Significant difference (p < 0.05) vs control group, amount of active GLP-1 secreted” value is on record as “No” and the “Amount of active GLP-1 secreted (relative value to control group as 100), average value” came to 116.
The like results for `C[C@@H]1NC(=O)[C@H](CC(N)=O)NC1=O` [compound 124, Cyclo(Asn-Ala)] were, in that order, “No” and 116.
In the case of `O=C1[C@@H]2CCCN2C(=O)[C@@H]2CCCN12` [compound 6, Cyclo(Pro-Pro)], in assay [1] (Table 1, Experiment 1), the “Significant difference (p < 0.05) vs control group, amount of active GLP-1 secreted” value is given as “No” and the “Amount of active GLP-1 secreted (relative value to control group as 100), average value” is given as 87.
`CC(C)C[C@@H]1NC(=O)CNC1=O` [compound 21, Cyclo(Gly-Leu)]: in assay [1] (Table 5, Experiment 5), the “Significant difference (p < 0.05) vs control group, amount of active GLP-1 secreted” value was “No” and the “Amount of active GLP-1 secreted (relative value to control group as 100), average value” worked out at 131.
Regarding `NC(=O)CC1NC(=O)C2CCCN2C1=O` (centres unmarked) [compound 201, cyclo-asparaginyl-proline], in assay [1] (Table 4, Experiment 4), the “Significant difference (p < 0.05) vs control group, amount of active GLP-1 secreted” value was “Yes” and the “Amount of active GLP-1 secreted (relative value to control group as 100), average value” turned out to be 430.
With `CC(O)C1NC(=O)CNC1=O` (centres unmarked) [compound 116, Cyclo(Thr-Gly)], in assay [1] (Table 3, Experiment 3), the “Significant difference (p < 0.05) vs control group, amount of active GLP-1 secreted” value was “No” and the “Amount of active GLP-1 secreted (relative value to control group as 100), average value” amounted to 146.
The corresponding values for `C[C@H](O)[C@@H]1NC(=O)[C@H](CC(=O)O)NC1=O` [compound 165, Cyclo(Asp-Thr)] are “No” and 140.
`O=C1NC(CO)C(=O)N2CCCC12` (centres unmarked) [compound 46, Cyclo(Ser-Pro)]: in assay [1] (Table 2, Experiment 2), the “Significant difference (p < 0.05) vs control group, amount of active GLP-1 secreted” value is “No” and the “Amount of active GLP-1 secreted (relative value to control group as 100), average value” is on record as 139.
With `O=C(O)C[C@@H]1NC(=O)CNC1=O` [compound 32, Cyclo(Asp-Gly)], in assay [1] (Table 5, Experiment 5), the “Significant difference (p < 0.05) vs control group, amount of active GLP-1 secreted” value is listed as “Yes” and the “Amount of active GLP-1 secreted (relative value to control group as 100), average value” is given as 12.
Turning to `O=C1NC(Cc2c[nH]c3ccccc23)C(=O)NC1CO` (centres unmarked) [compound 78, Cyclo(Trp-Ser)], in assay [1] (Table 2, Experiment 2), the “Significant difference (p < 0.05) vs control group, amount of active GLP-1 secreted” value is listed as “No” and the “Amount of active GLP-1 secreted (relative value to control group as 100), average value” is given as 119.
`NC(=O)CCC1NC(=O)C(CCC(N)=O)NC1=O` (centres unmarked) [compound 176, Cyclo(Gln-Gln)]: in assay [1] (Table 4, Experiment 4), the “Significant difference (p < 0.05) vs control group, amount of active GLP-1 secreted” value was “No” and the “Amount of active GLP-1 secreted (relative value to control group as 100), average value” turned out to be 111.
Regarding `NC(=O)CC[C@@H]1NC(=O)[C@H](CCC(=O)O)NC1=O` [compound 130, Cyclo(Gln-Glu)], in assay [1] (Table 3, Experiment 3), the “Significant difference (p < 0.05) vs control group, amount of active GLP-1 secreted” value is “No” and the “Amount of active GLP-1 secreted (relative value to control group as 100), average value” is 120.
As for `O=C1C2CC(O)CN2C(=O)C2CCCN12` (centres unmarked) [compound 74, Cyclo(Hyp-Pro)], in assay [1] (Table 2, Experiment 2), the “Significant difference (p < 0.05) vs control group, amount of active GLP-1 secreted” value is “No” and the “Amount of active GLP-1 secreted (relative value to control group as 100), average value” is 115.
As to `O=C1CNC(=O)[C@H](Cc2cnc[nH]2)N1` [compound 27, Cyclo(Gly-His)], in assay [1] (Table 5, Experiment 5), the “Significant difference (p < 0.05) vs control group, amount of active GLP-1 secreted” value is given as “No” and the “Amount of active GLP-1 secreted (relative value to control group as 100), average value” is on record as 82.
With `N=C(N)NCCC[C@@H]1NC(=O)[C@H](CC(N)=O)NC1=O` [compound 197, cyclo-asparaginyl-arginine], in assay [1] (Table 4, Experiment 4), the “Significant difference (p < 0.05) vs control group, amount of active GLP-1 secreted” value is listed as “Yes” and the “Amount of active GLP-1 secreted (relative value to control group as 100), average value” came out at 359.
